ChEMBL document CHEMBL5356956, “Optimizing and characterizing 4-methyl substituted pyrazol-3-carboxamides leading to the peripheral cannabinoid 1 receptor inverse agonist TM38837” (Bioorg Med Chem Lett, 2024)
Values after ≈ are worked out from the molar mass of the structure shown. Active and inactive are the calls of the source. No cut-off for these calls is given here.

Experiments:
hERG = hERG (Homo sapiens, UniProt Q12809); test: Inhibition of hERG at 10 uM by patch clamp assay relative to control; assay type: toxicity
Cannabinoid receptor 1 [1] = biological target: T1, Cannabinoid receptor 1 (Homo sapiens, UniProt P21554); test: Inverse agonist activity at human CB1 receptor expressed in CHO-K1 cell membrane by GTP-gamma-S assay; assay type: functional, cell membranes
[2] = Clearance in rat hepatocytes assessed per million cells; assay type: ADME, cell-based, Hepatocyte
Cannabinoid receptor 2 = Cannabinoid receptor 2 (Homo sapiens, UniProt P34972); test: Inverse agonist activity at human CB2 receptor expressed in CHO-K1 cell membrane in presence of CP55940 by GTP-gamma-S assay; assay type: functional, cell membranes
[3] = biological target: Voltage-gated inwardly rectifying potassium channel KCNH2 (Homo sapiens, UniProt Q12809); test: Inhibition of hERG by patch clamp assay; assay type: toxicity
Cannabinoid receptor 1 [4] = biological target: T1, Cannabinoid receptor 1; test: Inverse agonist activity at human CB1 receptor expressed in African green monkey COS7 cells co-expressing G-protein in presence of CP55940 by IP3 assay; assay type: functional, cell membranes, Membrane
[5] = Drug concentration in DIO mouse plasma at 10 mg/kg, po measured for 6 hrs; assay type: ADME, organism-based
[6] = Drug concentration in DIO mouse brain at 10 mg/kg, po measured for 6 hrs; assay type: ADME, organism-based; conditions: read-out: Drug uptake
Cannabinoid receptor 1 [7] = biological target: T1, Cannabinoid receptor 1; test: Antagonist activity at human CB1 receptor expressed in CHO-K1 cell membrane in presence of CP55940 by GTP-gamma-S assay; assay type: functional, cell membranes
[8] = Drug concentration in DIO mouse brain at 10 mg/kg, po measured for 6 hrs relative to plasma concentration; assay type: ADME, organism-based
[9] = Lipophilicity, logD of compound by chromatographic analysis; assay type: physicochemical
[10] = Subchronic toxicity in DIO mouse assessed as reduction in body weight at 10 mg/kg, po measured after 7 days; assay type: organism-based; parameters: scale not given: the % may be the effect or the level left; conditions: in vivo, 168 h, time 7 day
[11] = Drug concentration in DIO mouse adipose tissue at 10 mg/kg, po measured for 6 hrs; assay type: ADME, organism-based; conditions: read-out: Drug uptake
[12] = Drug concentration in DIO mouse liver at 10 mg/kg, po measured for 6 hrs; assay type: ADME, organism-based; conditions: read-out: Drug uptake
[13] = In vivo inverse agonist activity at CB1 receptor in DIO mouse assessed as efficacy at 10 mg/kg, po measured after 6 hrs; assay type: functional
[14] = Drug concentration in DIO mouse adipose tissue assessed as fold increase at 10 mg/kg, po measured for 6 hrs relative to plasma concentration; assay type: ADME, organism-based; conditions: read-out: FC
[15] = Solubility of compound; assay type: physicochemical
[16] = Cmax in NMRI mouse at 10 mg/kg, po; assay type: ADME, organism-based; parameters: dose 10 mg/kg, route po; conditions: in vivo
[17] = Oral bioavailability in NMRI mouse at 10 mg/kg; assay type: ADME, organism-based; conditions: in vivo
[18] = Half life in NMRI mouse at 10 mg/kg, po; assay type: ADME, organism-based; conditions: in vivo
[19] = Volume of distribution at steady state in NMRI mouse at 2 mg/kg, iv; assay type: ADME, organism-based; conditions: in vivo, read-out: Vdss
[20] = Protein binding in NMRI mouse plasma; assay type: ADME, cell-free; conditions: read-out: PPB
[21] = Drug concentration in NMRI mouse brain relative to plasma concentration; assay type: ADME, tissue-based
[22] = Clearance in NMRI mouse at 2 mg/kg, iv; assay type: ADME, organism-based; conditions: in vivo
[23] = Drug concentration in DIO mouse adipose tissue at 10 mg/kg, po measured for 6 hrs relative to plasma concentration; assay type: ADME, organism-based; conditions: other tissue
[24] = Half life in NMRI mouse at 2 mg/kg, iv; assay type: ADME, organism-based; conditions: in vivo
[25] = Drug concentration in DIO mouse brain at 10 mg/kg, po measured for 24 hrs; assay type: ADME, organism-based; conditions: for Drug uptake: in vivo, po, 10 mg/kg, 24 h, BLD = below limit of detection
[26] = Efflux ratio of permeability in human Caco-2 cells; assay type: ADME, cell-based
[27] = Tmax in NMRI mouse at 10 mg/kg, po; assay type: ADME, organism-based; conditions: in vivo
[28] = Drug uptake in brain of lean C57BL/6J mouse by autoradiography; assay type: ADME, tissue-based; conditions: in vivo
[29] = AUC (infinity) in NMRI mouse at 30 mg/kg, po; assay type: ADME, organism-based; parameters: dose 30 mg/kg, route po; conditions: in vivo
CYP2C9 = CYP2C9 (Homo sapiens, UniProt P11712); test: Inhibition of CYP2C9 (unknown origin) at 10 uM relative to control; assay type: ADME
[30] = Half life in NMRI mouse at 30 mg/kg, po; assay type: ADME, organism-based; conditions: in vivo
[31] = Tmax in NMRI mouse at 30 mg/kg, po; assay type: ADME, organism-based; conditions: in vivo
[32] = Cmax in NMRI mouse at 30 mg/kg, po; assay type: ADME, organism-based; parameters: dose 30 mg/kg, route po; conditions: in vivo
[33] = AUC (infinity) in NMRI mouse at 10 mg/kg, po; assay type: ADME, organism-based; parameters: dose 10 mg/kg, route po; conditions: in vivo
[34] = biological target: G-protein coupled receptor 55 (Homo sapiens) (UniProt Q9Y2T6); test: Inhibition of GPR55 (unknown origin) at 1 uM relative to control
Liver = test: In vivo inhibition of CB1 receptor in liver of lean C57BL/6J mouse by autoradiography; assay type: functional, organism-based
[35] = Oral bioavailability in NMRI mouse at 30 mg/kg; assay type: ADME, organism-based; conditions: in vivo
[36] = AUC (infinity) in NMRI mouse at 2 mg/kg, iv; assay type: ADME, organism-based; parameters: dose 2 mg/kg, route iv; conditions: in vivo
[37] = biological target: T2, Glucose-dependent insulinotropic receptor (Homo sapiens) (UniProt Q8TDV5); test: Inhibition of GPR119 (unknown origin) at 1 uM relative to control
T2 sequence (whole entry): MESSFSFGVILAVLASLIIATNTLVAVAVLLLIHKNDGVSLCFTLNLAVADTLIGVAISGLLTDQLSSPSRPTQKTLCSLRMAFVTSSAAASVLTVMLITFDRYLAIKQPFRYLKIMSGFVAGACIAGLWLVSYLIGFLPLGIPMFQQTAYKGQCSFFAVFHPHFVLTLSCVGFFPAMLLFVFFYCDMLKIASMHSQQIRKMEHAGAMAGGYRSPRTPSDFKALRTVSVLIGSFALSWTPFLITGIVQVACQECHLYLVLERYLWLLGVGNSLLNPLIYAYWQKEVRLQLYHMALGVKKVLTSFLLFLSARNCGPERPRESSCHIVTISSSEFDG

T1 sequence (P21554 whole entry): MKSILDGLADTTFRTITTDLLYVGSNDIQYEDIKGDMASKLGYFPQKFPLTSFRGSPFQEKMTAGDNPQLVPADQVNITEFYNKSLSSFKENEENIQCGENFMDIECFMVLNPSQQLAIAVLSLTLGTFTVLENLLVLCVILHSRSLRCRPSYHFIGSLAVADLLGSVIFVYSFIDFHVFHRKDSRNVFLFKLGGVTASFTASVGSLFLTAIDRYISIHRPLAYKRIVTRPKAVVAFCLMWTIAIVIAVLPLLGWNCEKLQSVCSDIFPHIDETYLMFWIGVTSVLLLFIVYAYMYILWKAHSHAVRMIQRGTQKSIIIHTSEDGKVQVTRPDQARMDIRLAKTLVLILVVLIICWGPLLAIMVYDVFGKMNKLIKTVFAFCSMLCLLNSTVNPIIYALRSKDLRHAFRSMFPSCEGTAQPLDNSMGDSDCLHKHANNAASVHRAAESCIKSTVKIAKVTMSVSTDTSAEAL
Chain of hERG (Q12809 whole entry): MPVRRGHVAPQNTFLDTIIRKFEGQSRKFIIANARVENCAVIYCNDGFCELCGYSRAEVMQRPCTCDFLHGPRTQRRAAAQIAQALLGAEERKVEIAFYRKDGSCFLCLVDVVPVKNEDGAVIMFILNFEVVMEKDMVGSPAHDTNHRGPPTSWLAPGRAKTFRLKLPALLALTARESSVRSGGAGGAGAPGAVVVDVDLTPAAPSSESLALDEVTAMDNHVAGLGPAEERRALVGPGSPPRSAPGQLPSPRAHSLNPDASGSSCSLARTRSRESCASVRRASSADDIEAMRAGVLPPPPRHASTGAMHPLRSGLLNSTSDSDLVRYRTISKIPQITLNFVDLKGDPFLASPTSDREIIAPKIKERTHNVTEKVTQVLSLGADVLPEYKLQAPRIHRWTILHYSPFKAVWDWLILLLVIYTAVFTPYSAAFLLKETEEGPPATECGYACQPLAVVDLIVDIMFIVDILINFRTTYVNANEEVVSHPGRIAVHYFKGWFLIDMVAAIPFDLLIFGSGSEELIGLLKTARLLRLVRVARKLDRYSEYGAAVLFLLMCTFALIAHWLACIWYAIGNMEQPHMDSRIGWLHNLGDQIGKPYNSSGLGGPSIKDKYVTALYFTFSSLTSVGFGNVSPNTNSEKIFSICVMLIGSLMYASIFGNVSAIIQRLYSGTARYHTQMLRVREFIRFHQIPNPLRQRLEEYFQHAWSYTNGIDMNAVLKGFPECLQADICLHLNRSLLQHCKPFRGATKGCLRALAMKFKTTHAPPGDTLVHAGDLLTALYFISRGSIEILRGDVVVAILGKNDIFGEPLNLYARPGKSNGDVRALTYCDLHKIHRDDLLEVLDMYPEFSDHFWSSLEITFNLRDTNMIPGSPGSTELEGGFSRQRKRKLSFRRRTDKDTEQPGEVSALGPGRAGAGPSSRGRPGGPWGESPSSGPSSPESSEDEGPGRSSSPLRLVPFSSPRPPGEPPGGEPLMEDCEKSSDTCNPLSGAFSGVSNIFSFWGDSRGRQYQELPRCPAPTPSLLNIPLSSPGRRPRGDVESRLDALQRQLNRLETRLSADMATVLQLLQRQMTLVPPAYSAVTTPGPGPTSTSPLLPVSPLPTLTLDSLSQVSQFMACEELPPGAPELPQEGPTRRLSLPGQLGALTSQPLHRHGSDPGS
Chain of Cannabinoid receptor 2 (P34972 whole entry): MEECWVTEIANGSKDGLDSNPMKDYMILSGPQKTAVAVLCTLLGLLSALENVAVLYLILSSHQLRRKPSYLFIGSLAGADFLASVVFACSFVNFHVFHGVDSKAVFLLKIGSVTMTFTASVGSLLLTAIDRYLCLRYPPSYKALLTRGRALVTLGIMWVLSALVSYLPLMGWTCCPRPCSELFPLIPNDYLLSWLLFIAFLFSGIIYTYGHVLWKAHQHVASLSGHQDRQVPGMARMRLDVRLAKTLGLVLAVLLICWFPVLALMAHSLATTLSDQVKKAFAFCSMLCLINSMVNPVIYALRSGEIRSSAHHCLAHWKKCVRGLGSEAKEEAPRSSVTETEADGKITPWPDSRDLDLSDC
Chain of G-protein coupled receptor 55 (Homo sapiens) (Q9Y2T6 whole entry): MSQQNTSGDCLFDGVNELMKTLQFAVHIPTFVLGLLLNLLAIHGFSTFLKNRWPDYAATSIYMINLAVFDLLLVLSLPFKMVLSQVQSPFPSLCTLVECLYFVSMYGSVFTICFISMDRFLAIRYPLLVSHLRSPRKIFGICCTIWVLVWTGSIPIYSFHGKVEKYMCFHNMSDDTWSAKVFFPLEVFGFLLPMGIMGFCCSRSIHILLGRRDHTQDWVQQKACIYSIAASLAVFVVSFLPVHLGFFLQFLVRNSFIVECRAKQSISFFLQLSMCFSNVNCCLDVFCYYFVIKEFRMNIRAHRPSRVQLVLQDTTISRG
Chain of CYP2C9 (P11712 whole entry): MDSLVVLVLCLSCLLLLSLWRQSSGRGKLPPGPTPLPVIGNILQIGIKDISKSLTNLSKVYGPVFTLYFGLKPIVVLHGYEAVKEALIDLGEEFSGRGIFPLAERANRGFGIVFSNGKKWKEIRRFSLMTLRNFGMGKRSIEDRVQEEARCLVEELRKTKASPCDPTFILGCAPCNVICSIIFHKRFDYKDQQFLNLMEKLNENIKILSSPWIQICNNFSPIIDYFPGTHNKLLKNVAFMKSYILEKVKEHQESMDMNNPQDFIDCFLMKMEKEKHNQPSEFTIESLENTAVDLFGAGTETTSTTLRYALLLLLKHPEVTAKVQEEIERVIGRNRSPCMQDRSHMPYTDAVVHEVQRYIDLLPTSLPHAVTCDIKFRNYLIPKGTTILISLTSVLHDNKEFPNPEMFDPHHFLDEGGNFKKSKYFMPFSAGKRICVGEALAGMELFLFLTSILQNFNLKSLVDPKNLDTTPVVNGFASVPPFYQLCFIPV
Chain of Voltage-gated inwardly rectifying potassium channel KCNH2 (Q12809 whole entry): as the sequence (Q12809 whole entry) above

Work on `NC(=O)Cc1c(C(=O)N2CCC(O)(c3ccc(F)cn3)CC2)nn(-c2ccccc2Cl)c1-c1ccc(Cl)cc1` yielded an inhibition at 10 µM (hERG) of 38%, an IC50 (Cannabinoid receptor 1 [1]) of 1.8 nM and a CLH [2] of 18 µL/min/1e6 cells.

In the case of `NC(=O)Cc1c(C(=O)N2CCC(O)(c3ccc(F)cc3)CC2)nn(-c2ccccc2Cl)c1-c1ccc(Cl)cc1`, the inhibition at 10 µM (hERG) is reported as 93%, the IC50 (Cannabinoid receptor 2) is reported as 7900 nM and the IC50 (Cannabinoid receptor 1 [1]) is reported as 0.45 nM. For the same molecule, the IC50 [3] was 800 nM, the IC50 (Cannabinoid receptor 1 [4]) was 1.8 nM and the CLH [2] was 8 µL/min/1e6 cells.

In the case of `C[C@@H](NC(=O)c1nn(-c2ccccc2Cl)c(-c2ccc(Cl)cc2)c1Cc1nn[nH]n1)c1ccc(OC(F)(F)F)cc1`, the IC50 (Cannabinoid receptor 2) is reported as over 10000 nM, the IC50 (Cannabinoid receptor 1 [1]) is reported as 21 nM and the concentration at 6 h [5] is reported as 12 µM. For the same molecule, the concentration at 6 h [6] was 0.16 µM, the IC50 (Cannabinoid receptor 1 [7]) was 9.6 nM and the Drug uptake [8] was 1.3%. It also gave a chromatographic logD [9] of 2.9, an Activity [10] of 11.8% and a concentration at 6 h [11] of 4 µM. For the same molecule, the IC50 (Cannabinoid receptor 1 [4]) was 4.8 nM, the concentration at 6 h [12] was 35 µM and the Efficacy [13] was 11%. For the same molecule, the Kp at 6 h [14] was 5.

`NC(=O)Cc1c(C(=O)NC2CCN(C(=O)C3CC3)CC2)nn(-c2ccccc2Cl)c1-c1ccc(Cl)cc1` showed an inhibition at 10 µM (hERG) of 24%, a solubility [15] of 81 µM (≈ 43.8 µg/mL) and a CLH [2] of 18 µL/min/1e6 cells.

`O=C(O)Cc1c(C(=O)N2CCC(c3ccccc3F)CC2)nn(-c2ccccc2Cl)c1-c1ccc(Cl)cc1` gave a Cmax [16] of 47 µM, a bioavailability [17] of 88% and a half-life [18] of 2.2 h. It also gave an IC50 (Cannabinoid receptor 2) of over 10000 nM, an IC50 (Cannabinoid receptor 1 [1]) of 51 nM and a Vd [19] of 0.6 L/kg. The fraction unbound [20] was under 0.01, the Drug uptake [21] was ~ 1% and the concentration at 6 h [5] was 38 µM. The clearance [22] was 2.1 mL/min/kg, the concentration at 6 h [6] was 0.22 µM and the IC50 (Cannabinoid receptor 1 [7]) was 4.8 nM. It also gave a Drug uptake [8] of 0.6%, a Drug uptake [23] of 4% and a half-life [24] of 3.1 h. For the same molecule, the chromatographic logD [9] was 2.6, the Activity [10] was 6.4% and the Drug uptake [25] was “Bld”. For the same molecule, the concentration at 6 h [11] was 1.5 µM, the IC50 (Cannabinoid receptor 1 [4]) was 2.9 nM and the concentration at 6 h [12] was 10 µM. It also gave an efflux ratio [26] of 1.3 and a Tmax [27] of 0.5 h.

For `O=C(O)Cc1c(C(=O)N2CCC(c3ccc(F)cc3)CC2)nn(-c2ccccc2Cl)c1-c1ccc(Cl)cc1`, the IC50 (Cannabinoid receptor 2) was over 10000 nM, the IC50 (Cannabinoid receptor 1 [1]) was 300 nM and the concentration at 6 h [5] was 9 µM. It also gave a concentration at 6 h [6] of 0.07 µM, an IC50 (Cannabinoid receptor 1 [7]) of 18 nM and a Drug uptake [8] of 0.8%. For the same molecule, the Drug uptake [23] was 4%, the chromatographic logD [9] was 2.7 and the Activity [10] was 0.2%. The Drug uptake [25] was “Bld”, the concentration at 6 h [11] was 0.35 µM and the IC50 (Cannabinoid receptor 1 [4]) was 18 nM. For the same molecule, the concentration at 6 h [12] was 9.5 µM.

In the case of `C[C@@H](NC(=O)c1nn(-c2ccccc2Cl)c(-c2ccc(Cl)cc2)c1Cc1nn[nH]n1)c1ccc(C(F)(F)F)cc1`, the Drug uptake [28] is reported as “Active”, the Cmax [16] is reported as 13 µM and the AUC(0-inf) [29] is reported as 297 µM·h. For the same molecule, the inhibition at 10 µM (CYP2C9) was 39%, the half-life [30] was 4 h and the bioavailability [17] was 95%. For the same molecule, the half-life [18] was 3.1 h, the Tmax [31] was 2 h and the Cmax [32] was 41 µM. The AUC(0-inf) [33] was 104 µM·h, the IC50 (Cannabinoid receptor 2) was 4500 nM and the IC50 (Cannabinoid receptor 1 [1]) was 24 nM. The Vd [19] was 0.4 L/kg, the fraction unbound [20] was under 0.01 and the Drug uptake [21] was ~ 1%. The concentration at 6 h [5] was 6.5 µM, the inhibition [34] was under 30% and the solubility [15] was 250 µM (≈ 147 µg/mL). The clearance [22] was 2.6 mL/min/kg, the concentration at 6 h [6] was 0.08 µM and the IC50 (Cannabinoid receptor 1 [7]) was 6.7 nM. For the same molecule, the Drug uptake [8] was 1.3%, the inhibition (Liver) was “Active” and the half-life [24] was 2.5 h. The bioavailability [35] was 91%, the AUC(0-inf) [36] was 22 µM·h and the chromatographic logD [9] was 2.8. It also gave an Activity [10] of 11.4%, a concentration at 24 h ([25]; brain, read-out: Drug uptake) of 0.02 µM and a concentration at 6 h [11] of 1.2 µM. It also gave an IC50 (Cannabinoid receptor 1 [4]) of 3.3 nM, a CLH [2] of 16 µL/min/1e6 cells and a concentration at 6 h [12] of 47 µM. It also gave an Efficacy [13] of 11%, a Kp at 6 h [14] of 5 and an efflux ratio [26] of 1. It also gave an inhibition [37] of under 30% and a Tmax [27] of 2 h.
